The values that follow come from patent US8957083B2, “Spiro-amino-imidazolone and spiro-amino-dihydro-pyrimidinone compounds as beta-secretase modulators and methods of use” (Amgen Inc., priority 2010, dated 2015).

Read-outs that look alike come from different tables or passages of the source.

In one data set the target is Cathepsin D (Cat D) (Homo sapiens (Human), UniProt P07339). Nature of the data set: In vitro enzymatic Cathepsin D (Cat D) FRET assay. The format is biochemical. Conditions: Cat D enzyme 9 nM, FRET substrate 20 nM, pH 3.5. The procedure:
In Vitro Enzymatic Cathepsin D (Cat D) FRET (Fluorescence Resonance Energy Transfer) Assay
Recombinant Cat D was expressed in CHO cells. The assay buffer for CathepsinD is 0.05 M citrate pH 3.5, 10% DMSO final, 5 mM CHAPS. The Cat D enzyme (9 nM) is pre-incubated for one hour with inhibitors, typically in about luL of DMSO according to a serial dilution, is added thereto. The assays are effectively started by the addition of different FRET substrates (20 nM for Cat D) and the combination is incubated for one hour. The FRET assay is terminated with by addition of Tris buffer, which raises the pH to neutrality, and the fluorescence is determined. The FRET substrate is a peptide with commercially available fluorophore and quencher, on opposite sides of the BACE cleavage site. The Cat D substrate peptide sequence is based on sequence #1 of Table 1 from Gulnik et al. FEB S Letters v413 p 379-384 1997. Proteolytic cleavage of the FRET substrate releases quenching of fluorescence (Cat D excitation 500 nm and emission 580 nm).
Where available, the in-vitro Cat D FRET assay data for each of the Examples, conducted by the first procedure, is provided.

Data set [1] concerns the target BACE 1 (Beta Secretase enzyme) (Homo sapiens (Human), UniProt P56817). Description: In vitro enzymatic BACE FRET assay. The format is biochemical. Conditions: enzyme 0.2 nM, FRET substrate 50 nM, pH 4.2. The procedure:
In Vitro Enzymatic BACE FRET (Fluorescence Resonance Energy Transfer) Assay (Enzyme Assay Data in the Example Table I)
The assay buffer used in this screen is 0.05 M acetate, pH 4.2, 10% DMSO final, 100 uM genapol (which is a nonionic detergent, below its Critical Micelle Concentration). […] This assay is effectively started by the addition of FRET substrate (50 nM) and the combination is incubated for one hour. The FRET assay is terminated with by addition of Tris buffer, which raises the pH to neutrality, and the fluorescence is determined. The FRET substrate is a peptide with commercially available fluorophore and quencher, on opposite sides of the BACE cleavage site. Proteolytic cleavage of the FRET substrate releases quenching of fluorescence (excitation […] and […]).

Data set [2] relates to Aβ40 in conditioned medium of cells expressing amyloid precursor protein. Description: In vitro BACE cell-based assay (HEK cell assay), Aβ40 sandwich ELISA. The conditions noted are these: Aβ40 in supernatant after 24 h incubation. The procedure: In Vitro BACE Cell-Based Assay
The cell-based assay measures inhibition or reduction of Aβ40 in conditioned medium of test compound treated cells expressing amyloid precursor protein.
Cells stably expressing Amyloid Precursor Protein (APP) were plated at a density of 40K cells/well in 96 well plates (Costar). The cells were cultivated for 24 hours at 37° C. and 5% CO2 in DMEM supplemented with 10% FBS. The test compounds were then added to cells in 10-point dose response concentrations with the starting concentration being either 100 μM or 10 μM. The compounds were diluted from stock solutions in DMSO and the final DMSO concentration of the test compounds on cells was 0.1%. After 24 h of incubation with the test compounds the supernatant conditioned media was collected and the Aβ 40 levels were determined using a sandwich ELISA. The IC50 of the compound was calculated from the percent of control or percent inhibition of Aβ 40 as a function of the concentration of the test compound.
The sandwich ELISA to detect Aβ 40 was performed in 96 well microtiter plates, which were pre-treated with goat anti-rabbit IgG (Pierce). The capture and detecting antibody pair that were used to detect Aβ 40 from cell supernatants were affinity purified pAb40 (Biosource) and biotinylated 6E10 (Signet Labs Inc.), respectively. The optimal concentration for the pAb40 antibody was 3 μg/ml in Superblock/TBS (Pierce) that was supplemented with 0.05% Tween 20 (Sigma).
Cellular supernatants were incubated with the capture antibody for 3 h at 4° C., followed by 3 wash steps in TBS-tween (0.05%). The detecting antibody incubation was for 2 h at 4° C., again followed by the wash steps as described previously. The final readout of the ELISA is Time-Resolved Fluorescence (counts per minute) using Delfia reagents Streptavidin-Europium and Enhancement solutions (Perkin Elmer) and the Victor 2 multilabel counter (Perkin Elmer).
(ELISA stands for enzyme-linked immunosorbent assay.)

A further data set deals with Aβ. Conditions: orally available; cited from earlier work.
For data set [3], the system named is pigment epithelium of the rat's eye. The conditions noted are these: higher compound dose given for three months; cited from earlier work.
In the next data set the test system is Aβ in lumbar CSF. The conditions noted are these: cited from earlier work.
The mark [4] stands for this setting: average IC50, read-out: BACE 1 FRET assay.
Where [5] appears, read: Homo sapiens, HEK293, 24 h, average IC50, read-out: HEK cell assay.
[6] abbreviates: class symbols, read-out: BACE 1 FRET assay (IC50 class).
[7] abbreviates: Homo sapiens, HEK293, 24 h, class symbols, read-out: HEK cell assay (IC50 class).
[8] abbreviates: average IC50, read-out: HEK cell assay.

Sequence of BACE 1 (Beta Secretase enzyme) (P56817 46-501): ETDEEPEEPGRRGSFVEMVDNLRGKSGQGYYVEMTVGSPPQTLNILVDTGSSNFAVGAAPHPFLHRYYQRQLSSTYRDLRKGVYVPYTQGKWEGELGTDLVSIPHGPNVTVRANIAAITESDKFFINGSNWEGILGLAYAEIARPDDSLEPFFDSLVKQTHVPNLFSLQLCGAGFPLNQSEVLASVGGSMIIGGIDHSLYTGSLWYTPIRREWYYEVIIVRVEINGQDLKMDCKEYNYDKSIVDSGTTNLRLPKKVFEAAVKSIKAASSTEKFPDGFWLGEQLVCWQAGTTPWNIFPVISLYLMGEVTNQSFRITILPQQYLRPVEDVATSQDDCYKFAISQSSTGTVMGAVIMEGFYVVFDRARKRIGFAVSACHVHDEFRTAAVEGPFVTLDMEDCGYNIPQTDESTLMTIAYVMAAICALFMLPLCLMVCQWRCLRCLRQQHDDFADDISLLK
Sequence of Cathepsin D (Cat D) (P07339 65-412, species assumed): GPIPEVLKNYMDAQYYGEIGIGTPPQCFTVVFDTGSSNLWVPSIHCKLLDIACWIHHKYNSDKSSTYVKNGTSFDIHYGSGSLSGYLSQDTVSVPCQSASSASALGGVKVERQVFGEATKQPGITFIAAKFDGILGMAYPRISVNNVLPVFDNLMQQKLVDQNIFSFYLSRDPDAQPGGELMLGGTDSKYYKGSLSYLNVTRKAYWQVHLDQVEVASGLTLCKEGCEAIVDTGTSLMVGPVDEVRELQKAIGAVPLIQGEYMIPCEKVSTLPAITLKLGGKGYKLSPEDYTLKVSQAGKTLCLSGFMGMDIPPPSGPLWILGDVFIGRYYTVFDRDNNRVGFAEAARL

Turning to `COc1ccc2c(c1)C1(N=C(N)N(C)C1=O)c1cc(NC(=O)c3ccc(Cl)cn3)ccc1O2` (stereo not shown) [Example 40, N-(2-amino-2′-methoxy-1-methyl-5-oxo-1,5-dihydrospiro[imidazole-4,9′-xanthen]-7′-yl)-5-chloropicolinamide], the IC50 at Cathepsin D (Cat D) amounted to 7400 nM; in data set [1] (setting [4]), 6.7 nM; in data set [2] (setting [5]), 39 nM.
Turning to `C[C@@]1(c2cc(-c3cncnc3)c(F)cc2F)CCSC(N)=N1` [LY2811376, (S)-4-(2,4-difluoro-5-pyrimidin-5-yl-phenyl)-4-methyl-5,6-dihydro-4H-[1,3]thiazin-2-ylamine], the “Aβ-lowering effects in animals” value with Aβ was “profound Aβ-lowering effects”. Also, in data set [3], the retinal toxicity finding entry was “ravaged the pigment epithelium of the rat's eye”. Also, the “Aβ reductions in lumbar CSF” value in the data set on Aβ in lumbar CSF (after oral dosing of 30 or 90 mg) was “Prominent and long-lasting Aβ reductions”. In the data set on Aβ in lumbar CSF (healthy volunteers), the safety and tolerability result is “safe and well tolerated”.
As for `CN1C(=N)N[C@@]2(CC1=O)c1cc(Br)ccc1Oc1cnc(Cl)cc12` [Example 20-A, (S)-7-bromo-3-chloro-2′-imino-1′-methyl-2′,3′-dihydro-1′H-spiro[chromeno[2,3-c]pyridine-5,4′-pyrimidin]-6′(5′H)-one], the IC50 in data set [1] (setting [6]) and in data set [2] (setting [7]) was over 1000 nM in each case.
On to `CN1C(=O)[C@]2(N=C1N)c1cc(-c3cccc(Cl)c3)ccc1Oc1c(F)cc(C3=CCOCC3)cc12` [Example 34, (4S)-2-amino-7′-(3-chlorophenyl)-2′-(3,6-dihydro-2H-pyran-4-yl)-4′-fluoro-1-methylspiro[imidazole-4,9′-xanthen]-5(1H)-one], for which the IC50 in data set [1] (setting [4]) stood at 0.3 nM; in data set [2] (setting [5]), 9.9 nM.
`COc1ccc2c(c1)[C@]1(N=C(N)N(C)C1=O)c1cc(-c3cncnc3)ccc1O2` (stereo in doubt) [Example 8, 2-amino-2′-methoxy-1-methyl-7′-(pyrimidin-5-yl)spiro[imidazole-4,9′-xanthen]-5(1H)-one]: the IC50 was 13.4 nM in data set [1] (setting [4]) and 108 nM in data set [2] (setting [5]).
Regarding `CN1C(=O)C[C@]2(N=C1N)c1cc(-c3cccnc3F)ccc1Oc1cnc(C3=CCOCC3)cc12` [Example 22, (S)-2′-amino-3-(3,6-dihydro-2H-pyran-4-yl)-7-(2-fluoropyridin-3-yl)-1′-methyl-1′H-spiro[chromeno[2,3-c]pyridine-5,4′-pyrimidin]-6′(5′H)-one], the IC50 in data set [1] (setting [4]) is 9.3 nM; in data set [2] (setting [5]), 59.8 nM.
On the same counts, the results for `CN1C(=O)C[C@@]2(N=C1N)c1cc(-c3cccnc3F)ccc1Oc1c2cc(Cl)nc1F` [Example 14, (R)-2′-amino-3-chloro-1-fluoro-7-(2-fluoropyridin-3-yl)-1′-methyl-1′H-spiro[chromeno[2,3-c]pyridine-5,4′-pyrimidin]-6′(5′H)-one] are 8210 nM and 361 nM.
Turning to `CN1C(=N)N[C@]2(CC1=O)c1cc(Br)ccc1Oc1cnc(Cl)cc12` [Example 20-B, (R)-7-bromo-3-chloro-2′-imino-1′-methyl-2′,3′-dihydro-1′H-spiro[chromeno[2,3-c]pyridine-5,4′-pyrimidin]-6′(5′H)-one], the IC50 in data set [1] (setting [6]) and in data set [2] (setting [7]) was over 1000 nM in each case.
`CN1C(=O)C[C@]2(N=C1N)c1cc(-c3cccnc3F)ccc1Oc1c2cc(C2CCOC(C)(C)C2)nc1F` (stereo partly drawn) [Example 28, (4′S)-2′-amino-3-(2,2-dimethyltetrahydro-2H-pyran-4-yl)-1-fluoro-7-(2-fluoropyridin-3-yl)-1′-methyl-1′H-spiro[chromeno[2,3-c]pyridine-5,4′-pyrimidin]-6′(5′H)-one]: the IC50 in data set [1] (setting [4]) turned out to be 2 nM; in data set [2] (setting [5]), 2.2 nM.
For `CN1C(=O)C[C@@]2(N=C1N)c1cc(-c3cccnc3F)ccc1Oc1cnc(C3=CCCOC3)cc12` [Example 25, (R)-2′-amino-3-(5,6-dihydro-2H-pyran-3-yl)-7-(2-fluoropyridin-3-yl)-1′-methyl-1′H-spiro[chromeno[2,3-c]pyridine-5,4′-pyrimidin]-6′(5′H)-one], the IC50 in data set [1] (setting [4]) came out at 2430 nM; in data set [2] (setting [5]), 6170 nM.
For `CN1C(=O)[C@@]2(N=C1N)c1cc(-c3cccc(Cl)c3)ccc1Oc1c(F)cc(C3=CCOCC3)cc12` [Example 35, (4R)-2-amino-7′-(3-chlorophenyl)-2′-(3,6-dihydro-2H-pyran-4-yl)-4′-fluoro-1-methylspiro[imidazole-4,9′-xanthen]-5(1H)-one], the IC50 in data set [1] (setting [4]) came out at 24.3 nM; in data set [2] (setting [5]) it was 1820 nM.
In the case of `Cc1ccc(-c2cc(F)c3c(c2)[C@]2(N=C(N)N(C)C2=O)c2cc(-c4cccc(Cl)c4)ccc2O3)cc1` [Example 36, (4R)-2-amino-7′-(3-chlorophenyl)-4′-fluoro-1-methyl-2′-(4-methylphenyl)spiro[imidazole-4,9′-xanthen]-5(1H)-one], the IC50 in data set [1] (setting [4]) was 225 nM; in data set [2] (setting [8]), over 10000 nM.
With `CN1C(=N)NC2(CC1=O)c1cc(-c3cccnc3F)ccc1Oc1cnc(-c3cccnc3F)cc12` (stereo not shown) [Example 21, 3,7-bis(2-fluoropyridin-3-yl)-2′-imino-1′-methyl-2′,3′-dihydro-1′H-spiro[chromeno[2,3-c]pyridine-5,4′-pyrimidin]-6′(5′H)-one], the IC50 is 48.3 nM in data set [1] (setting [4]) and 426 nM in data set [2] (setting [5]).
On the same counts, the results for `Cc1ccc(-c2cc(F)c3c(c2)[C@@]2(N=C(N)N(C)C2=O)c2cc(-c4cccc(Cl)c4)ccc2O3)cc1` [Example 37, (4S)-2-amino-7′-(3-chlorophenyl)-4′-fluoro-1-methyl-2′-(4-methylphenyl)spiro[imidazole-4,9′-xanthen]-5(1H)-one] are 2.9 nM and 147 nM.
The matching figures for `CN1C(=O)C[C@]2(N=C1N)c1cc(-c3cccnc3F)ccc1Oc1c2cc(C2=CCOC(C)(C)C2)nc1F` [Example 27, (S)-2′-amino-3-(2,2-dimethyl-3,6-dihydro-2H-pyran-4-yl)-1-fluoro-7-(2-fluoropyridin-3-yl)-1′-methyl-1′H-spiro[chromeno[2,3-c]pyridine-5,4′-pyrimidin]-6′(5′H)-one]: 0.7 nM and 5 nM.
As to `CN1C(=O)CC2(N=C1N)c1cc(-c3cccnc3F)ccc1Oc1c2cc(C2=CCCOC2)nc1F` (stereo not shown) [Example 16, 2′-amino-3-(5,6-dihydro-2H-pyran-3-yl)-1-fluoro-7-(2-fluoropyridin-3-yl)-1′-methyl-1′H-spiro[chromeno[2,3-c]pyridine-5,4′-pyrimidin]-6′(5′H)-one], the IC50 in data set [1] (setting [4]) turned out to be 1.4 nM; in data set [2] (setting [5]), 6.3 nM.
Turning to `CC#Cc1cncc(-c2ccc3c(c2)[C@]2(N=C(N)N(C)C2=O)c2cc(C4=CCOCC4)cc(F)c2O3)c1` [Example 32, (4S)-2-amino-2′-(3,6-dihydro-2H-pyran-4-yl)-4′-fluoro-1-methyl-7′-(5-(1-propyn-1-yl)-3-pyridinyl)spiro[imidazole-4,9′-xanthen]-5(1H)-one], the results for the IC50 in data set [1] (setting [4]) and in data set [2] (setting [8]) were 0.5 nM and 7.6 nM, respectively.
